Results taken from patent US20190365697A1, “Method for Treating Liver Dysfunction” (PROFEAT BIOTECHNOLOGY CO., LTD., priority 2017, published 2019).

Tested on: dogs, whose liver functions were not improved after the administration of SAMe
Test: Administration of SAMe followed by administration of Composition A1 to dogs; serum ALT, AST
Format: in vivo
Conditions: SAMe alone to dogs, clinically observed
Procedure: Therefore, Composition A1 was administered to 3 dogs, whose liver functions were not improved after the administration of SAMe. And the serum biochemistry values related to the liver function, ALT, AST and ALKP, were examined.

Structure (SMILES): C[S+](CC[C@H](N)C(=O)[O-])C[C@H]1O[C@@H](n2cnc3c(N)ncnc32)[C@H](O)[C@@H]1O (stereo partly shown) [SAMe, S-adenosylmethionine]
- improvement of liver functions: liver functions still cannot be improved
